GI50 and TGI data for ten compounds are collected here from PubChem BioAssay (NCI).

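48-hour exposure; five concentrations; linearly interpolated endpoints. Abbreviation: GI50, concentration required for 50% inhibition of growth. TGI is the concentration that stops growth completely.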

Among the test systems are A549 NSCLC; HCT-116 colon; MOLT-4 leukemia; OVCAR-5 ovarian; SNB-75 CNS; SW-620 colon; MALME-3M melanoma; UACC-62 melanoma; EKVX NSCLC; TK-10 renal.
Common to all, as to test: growth of human tumour cells (NCI), 48 h

As for `C[C@]12CC[C@@H]3c4ccc(Oc5nc(N6CC6)nc(N6CC6)n5)cc4CC[C@H]3[C@@H]1CCC2=O`, the GI50 is 1.5 µM in the assay on A549 NSCLC; 2.46 µM in the assay on HCT-116 colon; 0.747 µM in the assay on MOLT-4 leukemia; 12.1 µM with OVCAR-5 ovarian; 2.55 µM with SNB-75 CNS; 2.26 µM in the assay with SW-620 colon. In addition, the TGI with A549 NSCLC came to 12.8 µM; in the assay on HCT-116 colon it was 18.8 µM; in the assay with MOLT-4 leukemia, 4.97 µM; in the assay on OVCAR-5 ovarian it was 30.2 µM; with SNB-75 CNS, 14.9 µM; with SW-620 colon, 18.5 µM.
`COc1ccc(-n2c(SCc3cc(OC)c(OC)c(OC)c3)nc3ccc(C)cc3c2=O)cc1`: the GI50 with A549 NSCLC is 4.75 µM; in the assay with HCT-116 colon, 3.38 µM; with MALME-3M melanoma, 59.8 µM; with MOLT-4 leukemia it was 5.19 µM; in the assay with OVCAR-5 ovarian, more than 100 µM; in the assay on SNB-75 CNS it was 2.76 µM. Also, the results for the GI50 in the assay with SW-620 colon and with UACC-62 melanoma were 4.35 µM and 6.82 µM, respectively. In addition, the TGI in the assay on A549 NSCLC, in the assay with HCT-116 colon, with MALME-3M melanoma, in the assay on MOLT-4 leukemia, in the assay with OVCAR-5 ovarian and in the assay with SNB-75 CNS was more than 100 µM throughout. Further, the TGI in the assay with SW-620 colon and with UACC-62 melanoma was more than 100 µM throughout.
On to `Cc1c2c(nn1-c1ccc(S(=O)(=O)/N=C3\SCC(=O)N3C(=O)c3ccccc3)cc1)-c1ccccc1CC2`, for which the GI50 was more than 100 µM in the assay on A549 NSCLC; 40.5 µM in the assay on EKVX NSCLC; 26.4 µM in the assay on HCT-116 colon; more than 100 µM in the assay with MOLT-4 leukemia; 49.9 µM in the assay on OVCAR-5 ovarian; more than 100 µM with SW-620 colon. Besides, the GI50 in the assay with TK-10 renal is 98 µM; with UACC-62 melanoma it was 18.7 µM. Moreover, the TGI was more than 100 µM in the assay with A549 NSCLC; 90.7 µM in the assay on EKVX NSCLC; 58.8 µM with HCT-116 colon; more than 100 µM in the assay on MOLT-4 leukemia; more than 100 µM in the assay with OVCAR-5 ovarian; more than 100 µM with SW-620 colon. Besides, the TGI is more than 100 µM with TK-10 renal and 37.6 µM with UACC-62 melanoma.
In the case of `COc1cc(C(=O)O[C@H](C(N)=O)[C@]2(C)CO2)c2ccccc2c1`, the GI50 in the assay with A549 NSCLC is 15.4 µM; in the assay on EKVX NSCLC, 18 µM; in the assay on HCT-116 colon it was 5.21 µM; with MALME-3M melanoma, 16.2 µM; in the assay with MOLT-4 leukemia, 17 µM; with OVCAR-5 ovarian, 11.5 µM. The GI50 was 18.8 µM in the assay on SW-620 colon, 19.7 µM with TK-10 renal and 15.9 µM in the assay on UACC-62 melanoma. Besides, the TGI with A549 NSCLC turned out to be 73 µM; in the assay with EKVX NSCLC, 50 µM; in the assay with HCT-116 colon, 15.8 µM; in the assay on MALME-3M melanoma it was 36.5 µM; in the assay on MOLT-4 leukemia it was 48.9 µM; with OVCAR-5 ovarian, 33.1 µM. Further, the values for the TGI in the assay on SW-620 colon, with TK-10 renal and in the assay with UACC-62 melanoma were more than 100 µM, 37.5 µM and 29.8 µM, respectively.
`C[C@]12CC[C@@H]3c4ccc(O)cc4CC[C@H]3[C@@H]1CC[C@@H]2NS(=O)(=O)c1ccc(C(F)(F)F)cc1`: the GI50 is 2.05 µM in the assay on A549 NSCLC; 1.74 µM in the assay with HCT-116 colon; 2.03 µM in the assay on MALME-3M melanoma; 2.61 µM with MOLT-4 leukemia; 1.7 µM with OVCAR-5 ovarian; 1.67 µM in the assay on SNB-75 CNS. The GI50 with SW-620 colon is 3.23 µM; in the assay with TK-10 renal, 3.28 µM; in the assay on UACC-62 melanoma, 1.83 µM. Also, the TGI is 4.98 µM with A549 NSCLC; 3.19 µM in the assay on HCT-116 colon; 4.37 µM with MALME-3M melanoma; 12.7 µM in the assay with MOLT-4 leukemia; 3.26 µM in the assay with OVCAR-5 ovarian; 3.6 µM in the assay with SNB-75 CNS. Besides, the TGI with SW-620 colon was determined as 10.8 µM; with TK-10 renal, 8.53 µM; in the assay with UACC-62 melanoma, 3.55 µM.
Turning to `COc1cc([N+](=O)[O-])ccc1NC(=O)C(F)(F)F`, the TGI in the assay with A549 NSCLC, with EKVX NSCLC, in the assay with HCT-116 colon, in the assay with MOLT-4 leukemia, in the assay on OVCAR-5 ovarian and with SNB-75 CNS was more than 100 µM each time. Further, the TGI with SW-620 colon, with TK-10 renal and with UACC-62 melanoma was more than 100 µM in each case.
As to `N#CCCN(CCC#N)c1ccc(/C=C2\N=C(CN3C(=O)c4ccccc4C3=O)OC2=O)cc1`, the TGI with A549 NSCLC, in the assay with EKVX NSCLC, with HCT-116 colon, in the assay with MALME-3M melanoma, in the assay with MOLT-4 leukemia and in the assay on OVCAR-5 ovarian was more than 100 µM each time. Moreover, the TGI with SNB-75 CNS, with SW-620 colon and in the assay on UACC-62 melanoma was more than 100 µM each time.
With `CC(C)=CC(=O)N1CCN(C(=O)C=C(C)C)CC1`, the TGI in the assay on A549 NSCLC, with EKVX NSCLC, in the assay on HCT-116 colon, with MOLT-4 leukemia, with OVCAR-5 ovarian and in the assay with SNB-75 CNS was more than 100 µM in each case. Besides, the TGI in the assay with SW-620 colon, with TK-10 renal and in the assay on UACC-62 melanoma was more than 100 µM each time.
For the compound `O=C(CC(=O)N1N=C(c2ccccc2)C(N=Nc2ccc(Cl)cc2)C1=O)Nc1ccccc1Cl` (centres undefined), the TGI in the assay with A549 NSCLC was more than 100 µM; with EKVX NSCLC, more than 100 µM; with HCT-116 colon, more than 100 µM; in the assay with MOLT-4 leukemia, more than 100 µM; in the assay with OVCAR-5 ovarian it was more than 100 µM; with SNB-75 CNS it was 41.3 µM. Also, the TGI is more than 100 µM in the assay on SW-620 colon, 38.1 µM in the assay on TK-10 renal and 53.3 µM in the assay with UACC-62 melanoma.
Consider `COc1ccc(-c2nc(-c3nc4ccc(C)cc4[nH]3)c3ccccn23)cc1`, for which the GI50 in the assay with A549 NSCLC is 2.67 µM; with HCT-116 colon, 3.26 µM; in the assay on MALME-3M melanoma, 2.83 µM; with MOLT-4 leukemia, 2.17 µM; in the assay with OVCAR-5 ovarian, 4.69 µM; in the assay on SNB-75 CNS it was 5.49 µM. Further, the figures for the GI50 with SW-620 colon, with TK-10 renal and in the assay with UACC-62 melanoma were 3.12 µM, 3.39 µM and 2.14 µM, respectively. For the same compound, the TGI in the assay on A549 NSCLC was more than 100 µM; in the assay with HCT-116 colon it was 9.46 µM; with MALME-3M melanoma, 8.62 µM; in the assay with MOLT-4 leukemia, 7.99 µM; in the assay with OVCAR-5 ovarian it was more than 100 µM; in the assay on SNB-75 CNS, more than 100 µM. Also, the TGI in the assay with SW-620 colon is more than 100 µM; in the assay with TK-10 renal, 9.22 µM; in the assay on UACC-62 melanoma, 5.66 µM.
